Reference: PubChem BioAssay AID2060613 (Molecular Pharmacology Branch, DTP, NCI, 2025)

System: 233499-124-R-J3-PDC complex spheroid viability
Assay: Anticancer human tumor 233499-124-R-J3-PDC patient-derived colon adenocarcinoma cell line growth inhibition [CLK]
Conditions: for IC50: curve of first compound; for viability, T/C: stronger effect = lower value; active = viability on the fitted dose curve at most 10% of control; inactive = the rest
Method in brief: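 Multi-cell-type spheroids combined patient-derived tumor cells with HUVEC endothelial cells and human mesenchymal stem cells. Paired agents were dosed in half-log steps down from about clinical Cmax, or from 10 microM where Cmax was unknown.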

[1] = second compound 0.0316 µM, first compound 0.0316 µM
[2] = second compound 0.0316 µM, first compound 0.1 µM
[3] = second compound 0.1 µM, first compound 0.0316 µM
[4] = second compound 0.1 µM, first compound 0.1 µM
[5] = second compound 0.316 µM, first compound 0.0316 µM
[6] = second compound 0.316 µM, first compound 0.1 µM
[7] = second compound 1 µM, first compound 0.0316 µM
[8] = second compound 1 µM, first compound 0.1 µM
[9] = second compound 3.16 µM, first compound 0.0316 µM
[10] = second compound 3.16 µM, first compound 0.1 µM
[11] = second compound 10 µM, first compound 0.0316 µM
[12] = second compound 10 µM, first compound 0.1 µM
[13] = second compound 0.0316 µM, first compound 0.316 µM
[14] = second compound 0.0316 µM, first compound 1 µM
[15] = second compound 0.0316 µM, first compound 3.16 µM
[16] = second compound 0.0316 µM, first compound 10 µM
[17] = second compound 0.1 µM, first compound 0.316 µM
[18] = second compound 0.1 µM, first compound 1 µM
[19] = second compound 0.1 µM, first compound 3.16 µM
[20] = second compound 0.1 µM, first compound 10 µM
[21] = second compound 0.316 µM, first compound 0.316 µM
[22] = second compound 0.316 µM, first compound 1 µM
[23] = second compound 0.316 µM, first compound 3.16 µM
[24] = second compound 0.316 µM, first compound 10 µM
[25] = second compound 1 µM, first compound 0.316 µM
[26] = second compound 1 µM, first compound 1 µM
[27] = second compound 1 µM, first compound 3.16 µM
[28] = second compound 1 µM, first compound 10 µM
[29] = second compound 3.16 µM, first compound 0.316 µM
[30] = second compound 3.16 µM, first compound 1 µM
[31] = second compound 3.16 µM, first compound 3.16 µM
[32] = second compound 3.16 µM, first compound 10 µM
[33] = second compound 10 µM, first compound 0.316 µM
[34] = second compound 10 µM, first compound 1 µM
[35] = second compound 10 µM, first compound 3.16 µM
[36] = second compound 10 µM, first compound 10 µM
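Also: spheroids exposed to the drug combinations for seven days.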
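For viability, T/C in this document: percent viability relative to DMSO vehicle control wells taken as 100%.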

Cn1ncnc1[C@H]1c2n[nH]c(=O)c3cc(F)cc(c23)N[C@@H]1c1ccc(F)cc1 + CN1CCN(c2cc(C(=O)Nc3cc4cc(-c5cnn(C)c5)ccc4cn3)ccn2)CC1
> 100 nM: IC50 (second compound 0.0316 µM) | IC50 (second compound 0.1 µM) | IC50 (second compound 0.316 µM)
inactive: viability, T/C (second compound 0.0316 µM, first compound 0.000316 µM) 91.2% | viability, T/C (second compound 0.0316 µM, first compound 0.001 µM) 108% | viability, T/C (second compound 0.0316 µM, first compound 0.00316 µM) 100% | viability, T/C (second compound 0.0316 µM, first compound 0.01 µM) 110% | viability, T/C [1] 104% | viability, T/C [2] 92.7% | viability, T/C (second compound 0.1 µM, first compound 0.000316 µM) 100% | viability, T/C (second compound 0.1 µM, first compound 0.001 µM) 105% | viability, T/C (second compound 0.1 µM, first compound 0.00316 µM) 89.5% | viability, T/C (second compound 0.1 µM, first compound 0.01 µM) 97.8% | viability, T/C [3] 92.1% | viability, T/C [4] 94.4% | viability, T/C (second compound 0.316 µM, first compound 0.000316 µM) 85.5% | viability, T/C (second compound 0.316 µM, first compound 0.001 µM) 103% | viability, T/C (second compound 0.316 µM, first compound 0.00316 µM) 101% | viability, T/C (second compound 0.316 µM, first compound 0.01 µM) 89.6% | viability, T/C [5] 92.7% | viability, T/C [6] 101% | viability, T/C (second compound 1 µM, first compound 0.000316 µM) 19.1%
active: viability, T/C (second compound 1 µM, first compound 0.001 µM) 2.31% | viability, T/C (second compound 1 µM, first compound 0.00316 µM) 5.38% | viability, T/C (second compound 1 µM, first compound 0.01 µM) 1.23% | viability, T/C [7] 2.59% | viability, T/C [8] 0.76% | viability, T/C (second compound 3.16 µM, first compound 0.000316 µM) 0.59% | viability, T/C (second compound 3.16 µM, first compound 0.001 µM) 0.64% | viability, T/C (second compound 3.16 µM, first compound 0.00316 µM) 0.58% | viability, T/C (second compound 3.16 µM, first compound 0.01 µM) 0.53% | viability, T/C [9] 0.57% | viability, T/C [10] 0.46% | viability, T/C (second compound 10 µM, first compound 0.000316 µM) 0.41% | viability, T/C (second compound 10 µM, first compound 0.001 µM) 0.43% | viability, T/C (second compound 10 µM, first compound 0.00316 µM) 0.45% | viability, T/C (second compound 10 µM, first compound 0.01 µM) 0.44% | viability, T/C [11] 0.51% | viability, T/C [12] 0.56%
< 0.316 nM: IC50 (second compound 1 µM) | IC50 (second compound 3.16 µM) | IC50 (second compound 10 µM)

O=c1[nH]cc(F)c(=O)[nH]1 + CNC(=O)c1ccc(Nc2nc(OC3CCCC3)c3c(-c4ccc5nc(C)oc5c4)c[nH]c3n2)c(OC)c1
199 nM: IC50 (second compound 0.1 µM)
150 nM: IC50 (second compound 3.16 µM)
inactive: viability, T/C [1] 91.5% | viability, T/C [2] 95.7% | viability, T/C [13] 49.8% | viability, T/C [14] 28.5% | viability, T/C [15] 20.1% | viability, T/C [16] 19.1% | viability, T/C [3] 73% | viability, T/C [4] 72.4% | viability, T/C [17] 35.2% | viability, T/C [18] 21.4% | viability, T/C [19] 15.1% | viability, T/C [20] 20.4% | viability, T/C [5] 81% | viability, T/C [6] 60.5% | viability, T/C [21] 36.8% | viability, T/C [22] 20.7% | viability, T/C [23] 14.9% | viability, T/C [24] 16.5% | viability, T/C [7] 70.6% | viability, T/C [8] 68.7% | viability, T/C [25] 26.2% | viability, T/C [9] 70.8% | viability, T/C [10] 63.1% | viability, T/C [29] 26.9% | viability, T/C [30] 15.5% | viability, T/C [11] 69.6% | viability, T/C [12] 75.3% | viability, T/C [33] 33.6% | viability, T/C [34] 16% | viability, T/C [35] 7.38% | viability, T/C [36] 8.24%
316 nM: IC50 (second compound 0.0316 µM)
166 nM: IC50 (second compound 0.316 µM) | IC50 (second compound 1 µM)
195 nM: IC50 (second compound 10 µM)
active: viability, T/C [26] 11.4% | viability, T/C [27] 7.78% | viability, T/C [28] 9.54% | viability, T/C [31] 7.07% | viability, T/C [32] 6.87%

O=c1[nH]cc(F)c(=O)[nH]1 + CN1CCN(c2cc(C(=O)Nc3cc4cc(-c5cnn(C)c5)ccc4cn3)ccn2)CC1
inactive: viability, T/C [1] 93% | viability, T/C [2] 104% | viability, T/C [13] 90.8% | viability, T/C [14] 43.5% | viability, T/C [15] 28.6% | viability, T/C [16] 31.4% | viability, T/C [3] 99.8% | viability, T/C [4] 100% | viability, T/C [17] 96.8% | viability, T/C [18] 48% | viability, T/C [19] 28.8% | viability, T/C [20] 30.4% | viability, T/C [5] 96.3% | viability, T/C [6] 98.5% | viability, T/C [21] 96.5% | viability, T/C [22] 42% | viability, T/C [23] 24.6% | viability, T/C [24] 19.7%
< 31.6 nM: IC50 (second compound 1 µM) | IC50 (second compound 3.16 µM) | IC50 (second compound 10 µM)
850 nM: IC50 (second compound 0.0316 µM)
952 nM: IC50 (second compound 0.1 µM)
active: viability, T/C [7] 1.35% | viability, T/C [8] 1.2% | viability, T/C [25] 0.92% | viability, T/C [26] 2.1% | viability, T/C [27] 0.59% | viability, T/C [28] 0.84% | viability, T/C [9] 0.5% | viability, T/C [10] 0.58% | viability, T/C [29] 1.18% | viability, T/C [30] 0.66% | viability, T/C [31] 0.53% | viability, T/C [32] 0.54% | viability, T/C [11] 0.37% | viability, T/C [12] 0.5% | viability, T/C [33] 1.31% | viability, T/C [34] 0.42% | viability, T/C [35] 0.41% | viability, T/C [36] 0.45%
844 nM: IC50 (second compound 0.316 µM)
